# Laboratory results: the NIST ThermoML archive (doi:10.1016/j.fluid.2019.06.021)
# Numbers after ± are expanded uncertainties.
# Conditions: Crystal; DTA
row,Normal melting temperature [°C],SMILES
1,72.6 ± 0.9,"CCN(C(=O)N(CC)c1ccccc1)c1ccccc1 [1,3-diethyl-1,3-diphenylurea]"
2,52.5 ± 0.9,c1ccc(Nc2ccccc2)cc1 [diphenylamine]

# More lines, now with the values behind:
row,SMILES,Normal melting temperature [°C]
1,CC(=O)OCCNc1ccc([N+](=O)[O-])cc1 [2-[(4-nitrophenyl)amino]ethanol 1-acetate],113.2 ± 0.9
2,O=[N+]([O-])c1ccccc1Nc1ccccc1 [2-nitrodiphenylamine],74.8 ± 0.9
3,COCCNc1ccc([N+](=O)[O-])cc1 [N-(2-methoxyethyl)-4-nitroaniline],85.8 ± 0.9
